We go through 102 compounds from PubChem BioAssay AID488890 (Southern Research Specialized Biocontainment Screening …, 2010).

Results filed as inconclusive are left out. Calls of active or inactive are those of the source. The rule behind the calls is not given here.

For the experiment, the system named is Mycobacterium tuberculosis non-replicating, growth inhibition. Put plainly: growth inhibition of non-replicating M. tuberculosis (AID 488890).
Broadly, the IC50 is the midpoint of a concentration-inhibition curve. Take `O=C(Nc1ccccc1)c1cc2ccccc2o1`: the concentration for half-maximal inhibition (IC50) is 4.57 µM.

For `CC12CC3CC(C)(C1)CC(C(=O)N1CCCC1)(C3)C2`, the IC50 is 24 µM (inactive). Take `CCCOc1ccc(-c2nc(C#N)c(NCCCn3ccnc3)o2)cc1`: the IC50 was 17 µM (inactive). For `CCCOC(=O)c1ccc(NC(=O)c2ccccc2OC)cc1`, the IC50 is 18.1 µM (inactive). As for `O=C(NC1CCOc2ccccc21)c1ccc(Cl)nc1` (configuration not stated), the IC50 was 1.46 µM. On to `CCN1CCC(=NNC(=O)c2ccco2)CC1`, for which the IC50 is 42.6 µM (inactive).

For the compound `CCCCCCCC(=O)N/N=C(/C)c1c(O)cc(C)oc1=O`, the IC50 was 4.26 µM. The result for `O=C(NNc1c(F)c(F)cc(F)c1F)c1cc2ccccc2oc1=O` reads 27.5 µM (inactive); that for `Cc1ccc(C(=O)N/N=C\c2ccc[nH]2)cn1`, 16.9 µM (inactive). With `Clc1cccc(CNCCNCc2cccc(Cl)c2)c1` the figure was 12.1 µM (inactive); with `Cc1ccc2c(CC(=O)OCC(=O)Nc3ccc(Cl)cn3)coc2c1`, 15 µM (inactive). With `Cc1cccnc1NC(=O)COc1ccc2oc3c(c2c1)CCCC3` the figure was 9.41 µM; with `O=C1c2ccccc2-n2c1nc1ccccc1c2=O`, 2.8 µM. Take `CCc1ccc(N2NC(=O)/C(=C/C=C/c3ccco3)C2=O)cc1`: the half-maximal inhibitory concentration (IC50) is 3.65 µM. Consider `O=C(Nc1nnc(-c2ccc(Br)cc2)o1)C1=COCCO1`, for which the IC50 was 24.6 µM (inactive).

For `CCOCCOC(=O)COc1ccc2c(-c3ccccc3)cc(=O)oc2c1`, the IC50 was 0.98 µM.

As to `Cc1cc(C)n2nc(S(=O)(=O)Nc3c(Cl)cccc3Cl)nc2n1`, the IC50 was 3.15 µM. The result for `CCCc1nnc(NC(=O)c2cc3ccccc3oc2=O)s1` reads 2.34 µM; that for `CCOC(=O)N1CCC(N2CCCC(C(=O)c3ccc4cc(OC)ccc4c3)C2)CC1` (configuration not stated), 18.7 µM (inactive); that for `O=C(NCCCN1CCCC1)c1cc2c(Cl)nc3ccccc3c2s1`, 10.5 µM (inactive). With `C/C(=C\C(=O)c1ccncc1)Nc1ccccc1O` the figure was 4.15 µM; with `O=[N+]([O-])c1ccc2nc(SCc3cn4ccccc4n3)[nH]c2c1`, 8.98 µM; with `COc1ccc(OCC(=O)N/N=C2\CCc3ccccc32)cc1`, 9.35 µM. The result for `CCOC(=O)c1cnc(Nc2nc3ccccc3o2)nc1CSC(=S)N1CCCCC1` reads 1.49 µM; that for `COc1cccc(-c2cc3nc4c(c(NCC(C)(C)CN(C)C)n3n2)CCCC4)c1`, 26.2 µM (inactive); that for `O=c1oc(/C=C/c2ccc([N+](=O)[O-])s2)nc2ccccc12`, 8.47 µM. In the case of `C=CCn1c(O)c(C2=c3ccccc3=NC2=O)c2ccccc21`, the IC50 was 2.68 µM. For `Brc1ccc(CSc2nnc(-c3ccco3)o2)cc1`, the IC50 was 0.28 µM. With `CCOC(=O)Cc1csc(NC(=O)c2c(O)c3ccccc3n(CCC(C)C)c2=O)n1` the figure was 1.77 µM; with `O=C(COc1ccc(Cl)cc1)Nc1ccc(Cl)cn1`, 6.56 µM; with `Cc1cc(C)n(C(=O)c2ccc([N+](=O)[O-])cc2[N+](=O)[O-])n1`, 24.3 µM (inactive). With `CCOc1ccc(OC(=O)c2ccc3c(=O)n4c(nc3c2)CCC4)cc1` the figure was 0.5 µM. As for `O=C(Nc1nnc(-c2ccncc2)o1)c1ccc(Br)s1`, the concentration for half-maximal inhibition (IC50) was 7.66 µM. As to `Cc1ccc(NC(=O)COc2ccccc2)cc1Cl`, the IC50 was 9.92 µM.

In the case of `O=C(NCC1CCCCC1)c1ccco1`, the half-inhibitory concentration (IC50) is 2.18 µM. For the compound `CN(O)/C=c1/ccc2c(n1)C(=O)C=CC=2`, the IC50 is 1.92 µM. The result for `NC(N)=N/N=C/c1cn(-c2ccccc2)nc1-c1cccs1` reads 6.07 µM; that for `O=C(OCC(=O)N1CCCCC1)c1cc2ccccc2cc1O`, 5.84 µM. With `Cc1cc(OCCOCCNCc2ccccc2)ccc1C(C)C`, the IC50 is 15.1 µM (inactive). `CCCn1c(=O)c(C(=O)N/N=C/c2ccccc2F)c(O)c2ccccc21`: the IC50 is 13.3 µM (inactive).

For the compound `Cc1cccnc1NC(=O)c1c(O)c2ccccc2n(C)c1=O`, the IC50 was 32 µM (inactive). The result for `C/C(=N\Nc1nc2ccccc2[nH]1)c1ccc(N2CCOCC2)cc1` reads 10.5 µM (inactive). Consider `O=C(C/C=N\OCc1ccc([N+](=O)[O-])cc1)Nc1ccc(Br)cc1`, for which the IC50 was 10.9 µM (inactive). With `C/C(CC(=O)Nc1ccc(C)c(Cl)c1)=N\NC(=O)c1ccco1` the figure was 28.8 µM (inactive); with `Oc1cc(NCc2cccnc2)ccc1-c1nc2ccccc2o1`, 47.1 µM (inactive); with `Cc1noc2ncnc(Sc3ccc(Br)cc3)c12`, 6.24 µM. With `Cc1ccc(-n2cc(CNCCc3cscn3)c(-c3ccc(F)cc3)n2)cc1` the figure was 10.9 µM (inactive); with `O=C(NC1=NCCS1)c1ccc(-c2ccc(Cl)cc2)o1`, 11.9 µM (inactive). With `C=CCn1c(O)c(C(C)=Nc2ccc(C(=O)OCC)cc2)c(=O)[nH]c1=O` the figure was 7.05 µM. `CCOC(=O)COc1ccc2c(c1)c(C(=O)OCC)c(C)n2CC`: the IC50 was 10.9 µM (inactive). In the case of `COc1ccc(-c2cc(C(F)(F)F)nc(S(C)(=O)=O)n2)cc1`, the IC50 was 2.87 µM.

In the case of `O=C(CCN1CCC(c2ccccc2)C1)c1ccccc1` (configuration not stated), the IC50 was 33.1 µM (inactive).

With `Cc1cccc(-c2cc3nc(C)c(C)c(NCCCn4ccnc4)n3n2)c1`, the IC50 is 10.9 µM (inactive). The result for `C[C@H](NC(=O)c1[nH]cnc1C(=O)Nc1ccccc1)C(=O)OC(C)(C)C` reads 18.9 µM (inactive); that for `Nc1ccc2c(c1)C(=O)C(=O)c1ccccc1-2`, 2.47 µM. The result for `Cc1cc(Cl)ccc1OCC(=O)NNC(=O)c1cnccn1` reads 6.05 µM; that for `O=C(Nc1ccc(S(=O)(=O)N2CCOCC2)cc1)c1ccc([N+](=O)[O-])o1`, 5.29 µM. With `CC1=CC(C)(C)Nc2ccc(OC(=O)CN3C(=O)c4ccccc4C3=O)cc21` the figure was 9.07 µM; with `CNc1nnc(Sc2ncccc2[N+](=O)[O-])s1`, 5.8 µM. Take `Cc1cc(=O)n2cccc(O)c2n1`: the IC50 is 6.1 µM. As for `Cc1ccc(C(=O)N2N=C(CC(C)C)CC2(O)C(F)(F)F)o1` (configuration not stated), the IC50 is 6.3 µM. The result for `COc1ccc(OC(=O)CCc2c[nH]c3ccccc23)cc1` reads 3.37 µM; that for `COc1cc(/C=C2/C(=O)NN(c3ccc(Cl)cc3)C2=O)ccc1OC(=O)c1ccco1`, 5.12 µM; that for `O=C(C#Cc1ccccc1)c1ccco1`, 0.43 µM. As for `CCn1c(/C=N/NC(=O)c2ccc(OC)cc2)nc2ccccc21`, the IC50 is 7.78 µM. With `Cc1ccccc1-n1sc2cc(F)ccc2c1=O` the figure was 9.85 µM.

Consider `Cc1ccc(CCC(=O)Nc2cc(Cl)ccc2Cl)o1`, for which the IC50 is 3.79 µM. With `NC(=O)COc1ccc2cc(-c3ccc(F)cc3)c(=O)oc2c1` the figure was 18 µM (inactive); with `O=C(COC(=O)c1cccs1)NCCC1=CCCCC1`, 14.1 µM (inactive). The result for `O=C(c1ccc([N+](=O)[O-])s1)N1CCN(c2cccc(Cl)c2)CC1` reads 0.38 µM; that for `CC1CCN(CCc2nc3cc(NC(=O)COc4ccc(Cl)cc4)ccc3n2C)CC1`, 17.4 µM (inactive). For `Cc1cc(O)c(-c2cc(O)c(C)cc2O)cc1O`, the IC50 was 2.52 µM.

As for `O=[N+]([O-])c1cc([N+](=O)[O-])c2cc3ccccc3nc2c1`, the half-inhibitory concentration (IC50) was less than 0.1 µM. Turning to `CC(C)CN(Cc1c(O)ccc2ccccc12)CC(C)C`, the IC50 is 20.4 µM (inactive). With `FC(F)(F)c1nnc2ccc(Cl)nn12` the figure was 1.56 µM; with `O=c1[nH]c(=O)n(Cc2ccccc2Cl)c(O)c1/C=C1/C=CC=N1`, 0.25 µM.

On to `Clc1ccc2c(N3CCCC3)ccnc2c1`, for which the IC50 is 16.4 µM (inactive). Take `CC(=O)c1ccc(OCC(=O)Nc2ccc3c(c2)CCC3)cc1`: the IC50 is 12.4 µM (inactive). The result for `CN1CCN(Cc2cc(C(C)(C)C)c(O)c(C(C)(C)C)c2)CC1` reads 11.8 µM (inactive). With `COc1ccccc1NC(=O)c1cnc(SC)nc1` the figure was 22.3 µM (inactive). On to `CC(C)(C)OC(=O)N/N=C\c1ccc(OC(=O)c2ccco2)cc1`, for which the IC50 was 12.6 µM (inactive).

Take `CCc1nnc(N/N=C/c2ccc(-c3ccc([N+](=O)[O-])cc3)o2)n1N`: the IC50 is 7.59 µM. For `Cc1nn2c(NCCN(C)C)c3c(nc2c1-c1ccccc1)CCCC3`, the IC50 was 5.07 µM.

On to `C/C(=N\NC(=O)CCCNc1ccc(C)cc1)c1ccccn1`, for which the IC50 is 9.07 µM.

For `COc1ccc(Cc2nnc(SCc3ccc([N+](=O)[O-])cc3)o2)cc1`, the IC50 is 3.16 µM. Take `C/C(=N\NC(=O)c1cc([N+](=O)[O-])cc([N+](=O)[O-])c1)c1ccco1`: the IC50 is 11.4 µM (inactive). The result for `O=C(CCC1CCCC1)Nc1ccc(Br)cn1` reads 3.88 µM; that for `COC(=O)C1=C(C)N(Cc2ccccc2)C(=NCc2ccccc2)N[C@H]1c1cccc(F)c1`, 6.37 µM; that for `CC(=O)N1N=C(c2ccccc2)OC1c1ccc([N+](=O)[O-])s1` (configuration not stated), 13.4 µM (inactive). The result for `O=C(Nc1c(F)cc(F)cc1Br)c1cc(-c2ccccc2)on1` reads 6.29 µM; that for `COc1ccc(-c2nnc(SCC(C)C)o2)cc1`, 0.9 µM. Turning to `CN(CC(=O)Nc1ccc(Cl)cc1)C1CCCCC1`, the IC50 was less than 0.1 µM. Turning to `Oc1ccc(Br)cc1-c1ccn[nH]1`, the IC50 is 1.71 µM.

For `Oc1ccccc1-c1nnc(COc2ccccc2)o1`, the IC50 is 11.2 µM (inactive). `O=C(COC(=O)c1ccc(Cl)s1)c1ccc[nH]1`: the IC50 was 6.38 µM. The result for `COc1ccc(C(=O)Nc2ccccc2C(=O)N/N=C/c2ccccn2)cc1OC` reads 24.7 µM (inactive). With `O=C(O)c1ccccc1C(=O)NNc1ccc(F)cc1` the figure was 12.4 µM (inactive); with `O=C(CCc1ccccc1)N/N=C/c1cc(Br)ccc1O`, 0.44 µM. As to `CC1CCN(C(=O)c2ccc(-c3ccccc3Cl)o2)CC1`, the IC50 is 5.32 µM.

Regarding `Cc1c(Cl)cccc1-c1ccc(CNCc2ccccn2)o1`, the IC50 is 4.58 µM. With `O=C(CCS(=O)(=O)c1ccc(F)cc1)Nc1nc(-c2ccccn2)cs1` the figure was 7.41 µM; with `COC(=O)CCc1nc2c(C#N)c(-c3ccc(Cl)cc3)ccn2n1`, 24.3 µM (inactive).
